The results in this text go back to US11780826B2 (Amgen Inc., priority 2017, dated 2023).

This test concerns Bovine cardiac myofibrils. In words: In vitro model of dose-dependent myofibril ATPase modulation (AC1.4, pyruvate kinase/lactate dehydrogenase-coupled ATPase assay at pCa25). Format: biochemical. The conditions noted are these: concentration at which ATPase activity was 1.4-fold higher than the bottom of the dose curve, mean of a minimum of two independent tests. The method in brief: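 Absorbance at 340 nm tracked ATP hydrolysis through pyruvate kinase/lactate dehydrogenase coupling (0.5 mM NADH, 1.5 mM PEP). Myofibrils from detergent-homogenized bovine heart, 1 mM ATP, pH 6.80, EGTA/CaCl2 buffering. Dose-response curves fitted with a four-parameter Hill equation.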

In turn, `CC1(O)CN(S(=O)(=O)N2CCC[C@H](C(=O)N3CCC[C@@H]3C(=O)NCc3ccc(Cl)c(F)c3)C2)C1` [Example 663, N-(4-chloro-3-fluorobenzyl)-1-(((3S)-1-((3-hydroxy-3-methyl-1-azetidinyl)sulfonyl)-3-piperidinyl)carbonyl)-D-prolinamide] showed an AC1.4 of 4.6285 µM.

In the case of `O=C(NCc1ccc(C(F)(F)F)cc1)[C@H]1CCCN1C(=O)[C@H]1CCCN(S(=O)(=O)C2COC2)C1` [Example 664, 1-(((3S)-1-(3-oxetanylsulfonyl)-3-piperidinyl)carbonyl)-N-(4-(trifluoromethyl)benzyl)-D-prolinamide], the AC1.4 stood at 4.669 µM.

For the molecule `CS(=O)(=O)c1cc(C(=O)N2[C@@H](C(=O)N[C@@H](c3ccc(C(F)(F)F)c(F)c3)C3CC3)C[C@H]3C[C@H]32)ccn1` [Example 665, (1R,3R,5R)-N-((R)-cyclopropyl(3-fluoro-4-(trifluoromethyl)phenyl)methyl)-2-((2-(methylsulfonyl)-4-pyridinyl)carbonyl)-2-azabicyclo[3.1.0]hexane-3-carboxamide], the AC1.4 was 4.554 µM.

Regarding `Cc1ccc(S(C)(=O)=O)cc1C(=O)N1CCC[C@@H]1C(=O)N[C@@H](c1ccc(C(F)(F)F)cc1F)C1CC1` [Example 666, N-((R)-cyclopropyl(2-fluoro-4-(trifluoromethyl)phenyl)methyl)-1-(2-methyl-5-(methylsulfonyl)benzoyl)-D-prolinamide], the AC1.4 was 4.7065 µM.

Molecule `O=C(N[C@@H](c1cc(F)c(Cl)cc1F)C1CC1)[C@H]1C[C@H]2C[C@H]2N1C(=O)c1cccc(C(F)(F)F)n1` [Example 667, (1R,3R,5R)-N-((R)-(4-chloro-2,5-difluorophenyl)(cyclopropyl)methyl)-2-((6-(trifluoromethyl)-2-pyridinyl)carbonyl)-2-azabicyclo[3.1.0]hexane-3-carboxamide] yielded an AC1.4 of 4.708 µM.

The molecule `CCC(NC(=O)[C@H]1CCCN1C(=O)[C@H]1CCCN(S(=O)(=O)N2CC(C)(O)C2)C1)c1ccc(C(F)(F)F)cc1` (stereo partly drawn) [Example 668, (2R)-1-((S)-1-((3-hydroxy-3-methylazetidin-1-yl)sulfonyl)piperidine-3-carbonyl)-N-(1-(4-(trifluoromethyl)phenyl)propyl)pyrrolidine-2-carboxamide] registered an AC1.4 of 4.71 µM.

In the case of `CC1(O)CN(S(=O)(=O)N2CCC[C@H](C(=O)N3CCC[C@@H]3C(=O)NCc3ccc(C(F)(F)F)cc3F)C2)C1` [Example 669, N-(2-fluoro-4-(trifluoromethyl)benzyl)-1-(((3S)-1-((3-hydroxy-3-methyl-1-azetidinyl)sulfonyl)-3-piperidinyl)carbonyl)-D-prolinamide], the AC1.4 was found to be 4.727 µM.

For `C[C@@]1(C(=O)N[C@@H](c2cc(F)c(C(F)(F)F)cc2F)C2CC2)CCN1C(=O)c1cccc(S(C)(=O)=O)c1` [Example 670, (2S)-N-((R)-cyclopropyl(2,5-difluoro-4-(trifluoromethyl)phenyl)methyl)-2-methyl-1-(3-(methylsulfonyl)benzoyl)-2-azetidinecarboxamide], the AC1.4 came to 4.735 µM.

For `N#CC1CN(S(=O)(=O)c2cccc(C(=O)N3Cc4ccccc4CC3C(=O)NCc3ccc(C(F)(F)F)cc3)c2)C1` (centres unmarked) [Example 671, 2-(3-((3-cyanoazetidin-1-yl)sulfonyl)benzoyl)-N-(4-(trifluoromethyl)benzyl)-1,2,3,4-tetrahydroisoquinoline-3-carboxamide], the AC1.4 is 4.776 µM.

For the molecule `COc1ccc(CNC(=O)[C@H]2CCCN2C(=O)[C@H]2CCCN(S(=O)(=O)N3CC(C#N)C3)C2)cc1C` [Example 672, 1-(((3S)-1-((3-cyano-1-azetidinyl)sulfonyl)-3-piperidinyl)carbonyl)-N-(4-methoxy-3-methylbenzyl)-D-prolinamide], the AC1.4 stood at 4.8355 µM.

`CS(=O)(=O)c1cccc(C(=O)N2CCC[C@@H]2C(=O)N[C@@H](c2ccc(C(F)(F)F)cc2F)C2(F)COC2)c1` [Example 673, N-((S)-(3-fluoro-3-oxetanyl)(2-fluoro-4-(trifluoromethyl)phenyl)methyl)-1-(3-(methylsulfonyl)benzoyl)-D-prolinamide] registered an AC1.4 of 4.897 µM.

Molecule `N#CC1CN(S(=O)(=O)N2CCC[C@H](C(=O)N3CCC[C@@H]3C(=O)NCc3cc(C(F)(F)F)ccc3F)C2)C1` [Example 674, 1-(((3S)-1-((3-cyano-1-azetidinyl)sulfonyl)-3-piperidinyl)carbonyl)-N-(2-fluoro-5-(trifluoromethyl)benzyl)-D-prolinamide] displayed an AC1.4 of 4.9025 µM.

For the molecule `CS(=O)(=O)c1cc(C(=O)N2CCC[C@@H]2C(=O)N[C@@H](c2ccc(C(F)(F)F)cc2F)C2CC2)ccn1` [Example 675, N-((R)-cyclopropyl(2-fluoro-4-(trifluoromethyl)phenyl)methyl)-1-((2-(methylsulfonyl)-4-pyridinyl)carbonyl)-D-prolinamide], the AC1.4 is 4.9395 µM.

The molecule `CS(=O)(=O)c1cccc(C(=O)N2[C@@H](C(=O)N[C@@H](c3ccc(C(F)(F)F)cc3F)C3(F)COC3)C[C@H]3C[C@H]32)c1` [Example 676, (1R,3R,5R)-N-((S)-(3-fluoro-3-oxetanyl)(2-fluoro-4-(trifluoromethyl)phenyl)methyl)-2-(3-(methylsulfonyl)benzoyl)-2-azabicyclo[3.1.0]hexane-3-carboxamide] came in with an AC1.4 of 4.59 µM.

For `CN(C)S(=O)(=O)c1cccc(C(=O)N2CCCCC2C(=O)NCc2ccc(C(F)(F)F)cc2)c1` (centres unmarked) [Example 677, 1-(3-(N,N-dimethylsulfamoyl)benzoyl)-N-(4-(trifluoromethyl)benzyl)piperidine-2-carboxamide], the AC1.4 turned out to be 4.987 µM.

Take `CN(C)S(=O)(=O)c1cccc(C(=O)N2CCC[C@@H]2C(=O)N[C@H](CO)c2ccc(C(F)(F)F)cc2)c1` [Example 678, 1-(3-(dimethylsulfamoyl)benzoyl)-N-((1S)-2-hydroxy-1-(4-(trifluoromethyl)phenyl)ethyl)-D-prolinamide]: the AC1.4 was 4.993 µM.

For `O=C(NCc1ccc(C(F)(F)F)cc1)[C@H]1CCCN1C(=O)[C@H]1CCCN(S(=O)(=O)N2CC(n3cncn3)C2)C1` [Example 679, 1-(((3S)-1-((3-(1H-1,2,4-triazol-1-yl)-1-azetidinyl)sulfonyl)-3-piperidinyl)carbonyl)-N-(4-(trifluoromethyl)benzyl)-D-prolinamide], the AC1.4 turned out to be 5.023 µM.

Consider `O=C(N[C@@H](c1ccc(C(F)(F)F)cc1F)C1CC1)[C@H]1C[C@H]2C[C@H]2N1C(=O)c1cncc(C(F)(F)F)c1` [Example 680, (1R,3R,5R)-N-((R)-cyclopropyl(2-fluoro-4-(trifluoromethyl)phenyl)methyl)-2-((5-(trifluoromethyl)-3-pyridinyl)carbonyl)-2-azabicyclo[3.1.0]hexane-3-carboxamide], for which the AC1.4 is 5.0333 µM.

As for `COc1cc(F)cc(CNC(=O)[C@H]2CCCN2C(=O)[C@H]2CCCN(S(=O)(=O)N3CC(C#N)C3)C2)c1` [Example 681, 1-(((3S)-1-((3-cyano-1-azetidinyl)sulfonyl)-3-piperidinyl)carbonyl)-N-(3-fluoro-5-methoxybenzyl)-D-prolinamide], the AC1.4 was 5.0425 µM.

As for `CS(=O)(=O)c1cncc(C(=O)N2C[C@H](C(F)F)C[C@@H]2C(=O)N[C@@H](c2ccc(C(F)(F)F)cc2F)C2CC2)c1` [Example 682, (4R)-N-((R)-cyclopropyl(2-fluoro-4-(trifluoromethyl)phenyl)methyl)-4-(difluoromethyl)-1-((5-(methylsulfonyl)-3-pyridinyl)carbonyl)-D-prolinamide], the AC1.4 came to 4.606 µM.

As for `CC1(O)CN(S(=O)(=O)N2CCC[C@H](C(=O)N3C[C@@H](F)C[C@@H]3C(=O)NCc3ccc(C(F)(F)F)cc3)C2)C1` [Example 683, (4S)-4-fluoro-1-(((3S)-1-((3-hydroxy-3-methyl-1-azetidinyl)sulfonyl)-3-piperidinyl)carbonyl)-N-(4-(trifluoromethyl)benzyl)-D-prolinamide], the AC1.4 amounted to 5.096 µM.

In turn, `N#CC1CN(S(=O)(=O)N2CCC[C@H](C(=O)N3CCC[C@@H]3C(=O)NCc3ccccc3F)C2)C1` [Example 684, 1-(((3S)-1-((3-cyano-1-azetidinyl)sulfonyl)-3-piperidinyl)carbonyl)-N-(2-fluorobenzyl)-D-prolinamide] had an AC1.4 of 5.1985 µM.

Regarding `CS(=O)(=O)c1cccc(C(=O)N2[C@@H](C(=O)NC(c3ccc(C(F)(F)F)cc3F)C3CNC(=O)C3)C[C@H]3C[C@H]32)c1` (stereo partly drawn) [Example 685, (1R,3R,5R)-N-((2-fluoro-4-(trifluoromethyl)phenyl)(5-oxopyrrolidin-3-yl)methyl)-2-(3-(methylsulfonyl)benzoyl)-2-azabicyclo[3.1.0]hexane-3-carboxamide], the AC1.4 is 5.246 µM.

Molecule `O=C(N[C@@H](c1ccc(C(F)(F)F)c(F)c1)C1CC1)[C@H]1C[C@H]2C[C@H]2N1C(=O)c1ccnc(S(=O)(=O)C2CC2)c1` [Example 686, (1R,3R,5R)-N-((R)-cyclopropyl(3-fluoro-4-(trifluoromethyl)phenyl)methyl)-2-((2-(cyclopropylsulfonyl)-4-pyridinyl)carbonyl)-2-azabicyclo[3.1.0]hexane-3-carboxamide] showed an AC1.4 of 5.284 µM.

Turning to `NS(=O)(=O)c1ccc(Cl)c(C(=O)N2CCC[C@@H]2C(=O)N[C@@H](c2ccc(C(F)(F)F)cc2F)C2CC2)c1` [Example 687, 1-(2-chloro-5-sulfamoylbenzoyl)-N-((R)-cyclopropyl(2-fluoro-4-(trifluoromethyl)phenyl)methyl)-D-prolinamide], the AC1.4 came to 5.299 µM.

For `Cc1noc(C2CN(S(=O)(=O)N3CCC[C@H](C(=O)N4CCC[C@@H]4C(=O)NCc4ccc(C(F)(F)F)cc4)C3)C2)n1` [Example 688, 1-(((3S)-1-((3-(3-methyl-1,2,4-oxadiazol-5-yl)-1-azetidinyl)sulfonyl)-3-piperidinyl)carbonyl)-N-(4-(trifluoromethyl)benzyl)-D-prolinamide], the AC1.4 was found to be 5.317 µM.
